# Source: patent publication US20260250312A1, “ANTIBACTERIAL COMPOUNDS ELIMINATING DORMANT BACTERIAL CELLS” (UNIVERSITÉ D'AIX-MARSEILLE, priority 2022, published 2026)
# Several values for one entry are separate records, joined by “and”; a condition that tells them apart may be missing. Equal values may be shown once. Read-outs that look alike come from different tables or passages of the source. Marks after values point to notes of the source that are not given here.
# Tests used:
# [1] = test system: E. coli non-persister cells; test: Anti-persister activity test, non-persister cells; type: cell-based, Escherichia coli; settings: for Non-persister cell survival rate 96 h: concentration used 250 μM, 4 hours treatment; for viability at 250 µM / viability at 125 µM: Escherichia coli, 4 h; for viability at 250 µM: read-out: Non-persister cell survival rate 96 h, concentration used 250 μM, 4 hours treatment; for viability at 125 µM: read-out: Non-persister cell survival rate 96 h, concentration used 125 μM, 4 hours treatment; for activity on non-persister cells (in words): E. coli non-persister cells, Table 8 conditions
# Method: (§1) Anti-persister activity test: Escherichia coli (E. coli) persister cells were generated and isolated as described by MARQUES, C. N. H. et al. (Applied and Environmental Microbiology 2014, Vol. 80, No. 22, pp. 6976-6991). E. coli persister cells were compared to E. coli non-persister cells. 1 mL persister or non-persister bacteria culture was added in a 1.5 mL microtube with each of the compounds to be tested or ciprofloxacin as a […], and incubated at 37° C. with 160 rpm shaking for 4 hours. After 4 hours treatment with the compounds, the microtubes were centrifuged at 3,500g for 5 minutes and the pellets were resuspended in 1 mL of fresh drug free RM broth (10 g/L M9 salt, 2% casamino acids, 1 mM MgCl2, 1% glycerol). Resuspended bacteria were then plated over LB agar plates and incubated at 37° C. Bacterial colonies were enumerated after 24, 48 and 96 hours to estimate the survival rate.
# [2] = test system: Pseudomonas aeruginosa (ATCC27853); test: Microdilution MIC assay (CLSI-based), P. aeruginosa; type: cell-based; settings: 20 hours incubation at 35-37° C., MHB; for MIC: Pseudomonas aeruginosa, ATCC27853, 20 h, read-out: Minimum inhibitory concentration P. aeruginosa ATCC27853
# Outline: (§2)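 Broth microdilution per modified CLSI guidelines in Mueller Hinton broth, 200 μL, inoculum ca. 5×10^5 CFU/mL; compounds tested as salts, twofold dilutions from 0.2 mg/mL, in triplicate. MIC determined from OD at 620 nm after incubation.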
# [3] = test system: Staphylococcus aureus (ATCC25923); test: Microdilution MIC assay (CLSI-based), S. aureus; type: cell-based; settings: 20 hours incubation at 35-37° C., MHB; for MIC: Staphylococcus aureus, ATCC25923, 20 h, read-out: Minimum inhibitory concentration S. aureus ATCC25923
# Outline: as §2
# CHO-K1 cells = test: WST1 cytotoxicity test; type: cell-based, Chinese hamster
# Outline: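 CHO-K1 cells pre-cultured 24 h, then exposed 24 h at 37 °C to increasing compound concentrations. Viability read as WST-1 formazan absorbance at 450 nm after 20 min; dose-response fitted by nonlinear regression.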
# [4] = test system: Enterococcus faecalis (ATCC29212); test: Microdilution MIC assay (CLSI-based), E. faecalis; type: cell-based; settings: 20 hours incubation at 35-37° C., MHB; for MIC: Enterococcus faecalis, ATCC29212, 20 h, read-out: Minimum inhibitory concentration E. faecalis ATCC29212
# Outline: as §2
# [5] = test system: Escherichia coli (E. coli) persister cells; test: Anti-persister activity test, persister cells; type: cell-based; settings: for anti-persister activity (in words): E. coli persister cells, Table 8 conditions; for Persister cell survival rate 96 h: concentration used 250 μM, 4 hours treatment; for viability at 250 µM / viability at 125 µM: Escherichia coli, 4 h; for viability at 250 µM: read-out: Persister cell survival rate 96 h, concentration used 250 μM, 4 hours treatment; for viability at 125 µM: read-out: Persister cell survival rate 96 h, concentration used 125 μM, 4 hours treatment
# Method: as §1
# [6] = test system: Escherichia coli (ATCC28922); test: Microdilution MIC assay (CLSI-based), E. coli; type: cell-based; settings: 20 hours incubation at 35-37° C., MHB; for MIC: Escherichia coli, ATCC28922, 20 h, read-out: Minimum inhibitory concentration E. coli ATCC28922
# Outline: as §2
# [7] = Cricetulus griseus, CHO-K1, WST1, as printed in Table 8, read-out: Toxicity IC50 CHO
# [8] = Cricetulus griseus, CHO-K1, 24 h, WST1, 24 hours at 37° C., read-out: IC50 CHO
SMILES,Non-persister cell survival rate 96 h [1],Minimum inhibitory concentration P. aeruginosa ATCC27853 [2],Minimum inhibitory concentration S. aureus ATCC25923 [3],IC50 (CHO-K1 cells; [7]),"IC50 CHO (CHO-K1 cells; WST1, 24 hours at 37° C.)",Minimum inhibitory concentration E. faecalis ATCC29212 [4],anti-persister activity (in words) [5],Persister cell survival rate 96 h [5],Minimum inhibitory concentration E. coli ATCC28922 [6],viability at 250 µM [1],MIC [2],MIC [3],toxicity results (in words) (CHO-K1 cells),IC50 (CHO-K1 cells; [8]),MIC [4],viability at 250 µM [5],MIC [6],viability at 125 µM [1],viability at 125 µM [5],activity on non-persister cells (in words) [1],also measured
"COC(=O)[C@H](NC(=O)CC[C@@H](C)[C@H]1CCC2C3C(CC[C@@]21C)[C@@]1(C)CC[C@H](NCCCNCCCN)C[C@H]1C[C@H]3O)C(C)C (stereo partly drawn) [Compound S019, methyl ((4R)-4-((3S,5S,7R,10S,13R,17R)-3-((3-((3-aminopropyl)amino)propyl)amino)-7-hydroxy-10,13-dimethylhexadecahydro-1H-cyclopenta[a]phenanthren-17-yl)pentanoyl)-D-valinate]",4.0%,12.5* μM and 8* μg/mL,6.25* μM and 4* μg/mL,97.1 µM,60.09 µg/mL,25* μM and 16* μg/mL,very potent anti-persister activity,0.0%,12.5* μM and 8* μg/mL,,,,,,,,,,,,
"COC(=O)[C@H](NC(=O)CC[C@@H](C)[C@H]1CCC2C3C(C[C@H](O)[C@@]21C)[C@@]1(C)CC[C@H](NCCCN(CCCN)CCCN)C[C@H]1C[C@H]3O)C(C)C (stereo partly drawn) [Compound S060, methyl ((4R)-4-((3S,5S,7R,10S,12S,13R,17R)-3-((3-(bis(3-aminopropyl)amino)propyl)amino)-7,12-dihydroxy-10,13-dimethylhexadecahydro-1H-cyclopenta[a]phenanthren-17-yl)pentanoyl)-D-valinate]",,,,186 µM,,,very potent anti-persister activity,,,3.8%,160 µM and 128 µg/mL,40 µM and 32 µg/mL,good toxicity results,186 µM and 129 µg/mL,160 µM and 128 µg/mL,2%,160 µM and 128 µg/mL,,,,
"COC(=O)[C@H](Cc1ccccc1)NC(=O)CC[C@@H](C)[C@H]1CCC2C3C(CC[C@@]21C)[C@@]1(C)CC[C@H](NCCCNCCCCNCCCN)C[C@H]1C[C@H]3O (stereo partly drawn) [Compound S014, methyl ((4R)-4-((3S,5S,7R,10S,13R,17R)-3-((3-((4-((3-aminopropyl)amino)butyl)amino)propyl)amino)-7-hydroxy-10,13-dimethylhexadecahydro-1H-cyclopenta[a]phenanthren-17-yl)pentanoyl)-L-phenylalaninate]",,,,77.6 µM,,,both anti-persister and anti-bacterial activities,,,,25 µM and 16 µg/mL,3.12 µM and 2 µg/mL,good toxicity results,77.6 µM and 57.3 µg/mL,12.5 µM and 8 µg/mL,,6.25 µM and 4 µg/mL,0%,0%,,
"COC(=O)[C@H](NC(=O)CC[C@@H](C)[C@H]1CCC2C3C(CC[C@@]21C)[C@@]1(C)CC[C@H](NCCCNCCCN)C[C@H]1C[C@H]3O)C(C)C (stereo partly drawn) [Compound S017, methyl ((4R)-4-((3S,5S,7R,10S,13R,17R)-3-((3-((3-aminopropyl)amino)propyl)amino)-7-hydroxy-10,13-dimethylhexadecahydro-1H-cyclopenta[a]phenanthren-17-yl)pentanoyl)-D-valinate]",0.0%,50* μM and 32* μg/mL,12.5* μM and 8* μg/mL,,33.23 µg/mL,25* μM and 16* μg/mL,not as good on persister cells,0.6%,12.5* μM and 8* μg/mL,,,,,,,,,,,good activity on non-persister cells,"IC50 (CHO-K1 cells; WST1, 24 hours at 37° C., read-out: IC50 CHO): 53.7 µM; IC50 (CHO-K1 cells; WST1, Table 8, read-out: Toxicity IC50 CHO): 53.7 µM"
"COC(=O)[C@@H](NC(=O)CC[C@@H](C)[C@H]1CCC2C3C(CC[C@@]21C)[C@@]1(C)CC[C@H](NCCCNCCNCCCN)C[C@H]1C[C@H]3O)C(C)C (stereo partly drawn) [Compound S013, methyl ((4R)-4-((3S,5S,7R,10S,13R,17R)-3-((3-((2-((3-aminopropyl)amino)ethyl)amino)propyl)amino)-7-hydroxy-10,13-dimethylhexadecahydro-1H-cyclopenta[a]phenanthren-17-yl)pentanoyl)-L-valinate]",,,,96.3 µM,,,both anti-persister and anti-bacterial activities,,,0%,25 µM and 16 µg/mL,6.25 µM and 4 µg/mL,good toxicity results,96.3 µM and 63.7 µg/mL,12.5 µM and 8 µg/mL,0%,6.25 µM and 4 µg/mL,,,,
"COC(=O)[C@H](Cc1ccc(O)cc1)NC(=O)CC[C@@H](C)[C@H]1CCC2C3C(CC[C@@]21C)[C@@]1(C)CC[C@H](NCCCNCCNCCCN)C[C@H]1C[C@H]3O (stereo partly drawn) [Compound S042, methyl ((4R)-4-((3S,5S,7R,10S,13R,17R)-3-((3-((2-((3-aminopropyl)amino)ethyl)amino)propyl)amino)-7-hydroxy-10,13-dimethylhexadecahydro-1H-cyclopenta[a]phenanthren-17-yl)pentanoyl)-L-tyrosinate]",,,,51.4 µM,,,not as good on persister cells,,,,25 µM and 16 µg/mL,6.25 µM and 4 µg/mL,good toxicity results,51.4 µM and 37.3 µg/mL,25 µM and 16 µg/mL,,12.5 µM and 8 µg/mL,0%,0.1%,good activity on non-persister cells,
